What all share (assay): ≥ marks a high value that may be exact or a test limit, other limits are often not marked, values filed in µg/mL are converted to µM
Experiment [1] deals with Escherichia coli BL21.
The subject of experiment [2] is Pseudomonas syringae.
Experiment [3] deals with Xanthomonas axonopodis pv. phaseoli ATCC 9563.
Experiment [4] relates to Streptococcus pyogenes GAS M1T1.
Experiment [5] concerns Klebsiella pneumoniae ATCC 27736.
Experiment [6] relates to Pseudomonas aeruginosa ATCC 10662.
Experiment [7] deals with Staphylococcus aureus.
The test system of experiment [8] is Acinetobacter baumannii.
Experiment [9] has as its system Bacillus subtilis ATCC 6633.
In experiment [10] the test system is Staphylococcus epidermidis ATCC 1435.
Experiment [11] has as its system Pseudomonas aeruginosa ATCC BAA-427.
Experiment [12] concerns Candida tropicalis.
Experiment [13] concerns Candida glabrata.
For experiment [14], the system named is Candida albicans.
Experiment [15] concerns Staphylococcus aureus ATCC 25923.
Experiment [16] has as its system Candida albicans NCPF 1467.
Experiment [17] relates to Escherichia coli NCTC 10418.
In experiment [18] the test system is Staphylococcus aureus ATCC 12493.
The test system of experiment [19] is Staphylococcus aureus NCTC 10788.
The subject of experiment [20] is Candida albicans F7-39/IDE99.
Experiment [21] has as its system Staphylococcus aureus 1.
Experiment [22] deals with Micrococcus luteus CCM 144.
Experiment [23] concerns Staphylococcus aureus ATCC 43300.
The subject of experiment [24] is Pseudomonas aeruginosa.
For experiment [25], the system named is Staphylococcus epidermidis.
The test system of experiment [26] is Pseudomonas aeruginosa ATCC 27853.
Experiment [27] deals with Escherichia coli B.
Experiment [28] deals with Bacillus subtilis 168.
Experiment [29] relates to Streptococcus mutans UA159.
Experiment [30] concerns Streptococcus sobrinus ATCC 6715.
For experiment [31], the system named is Streptococcus sanguinis ATCC 10556.
The subject of experiment [32] is Klebsiella pneumoniae.
The subject of experiment [33] is Escherichia coli K-12.
For experiment [34], the system named is Staphylococcus aureus NCTC 8325-4.
Experiment [35] concerns Pseudomonas aeruginosa PAO1.

The results in this text go back to DBAASP.

Molecules are shown by their SMILES. ≈ marks a conversion by molar mass, not a printed value.

The term MIC denotes the smallest concentration in the dilution series that meets the test's criterion for growth inhibition. Turning to `CC[C@H](C)[C@H](NC(=O)[C@H](CCCCN)NC(=O)[C@H](CC(N)=O)NC(=O)[C@H](CCCCN)NC(=O)[C@H](CC(C)C)NC(=O)[C@H](Cc1ccc(O)cc1)NC(=O)[C@H](CCC(N)=O)NC(=O)[C@H](CCCN=C(N)N)NC(=O)[C@@H](NC(=O)[C@@H](NC(=O)[C@H](CCC(=O)O)NC(=O)[C@H](CCCCN)NC(=O)[C@H](Cc1c[nH]c2ccccc12)NC(=O)[C@H](C)N)[C@@H](C)O)[C@@H](C)CC)C(=O)N[C@@H](CCCCN)C(=O)N[C@@H](CCCCN)C(=O)N[C@@H](CCCCN)C(=O)N[C@@H](Cc1c[nH]c2ccccc12)C(=O)N[C@@H](CCCN=C(N)N)C(=O)N[C@@H](CCCCN)C(=O)N[C@@H](C)C(=O)N[C@H](C(=O)N[C@H](C(=O)N[C@@H](C)C(=O)N[C@@H](Cc1c[nH]c2ccccc12)C(=O)O)[C@@H](C)CC)C(C)C` [AWKETIRQYLKNKIKKKWRKAVIAW], the MIC came out at 2 µM (≈ 6.37 µg/mL) in experiment [1], 8 µM (≈ 25.5 µg/mL) in [2], 1 µM (≈ 3.19 µg/mL) in [3] and 10 µM (≈ 31.9 µg/mL) in experiment [4].

For the compound `CC[C@H](C)[C@H](NC(=O)[C@H](Cc1cnc[nH]1)NC(=O)[C@H](Cc1cnc[nH]1)NC(=O)[C@H](Cc1ccccc1)NC(=O)[C@@H](N)Cc1ccccc1)C(=O)N[C@@H](Cc1ccccc1)C(=O)N[C@@H](CCCN=C(N)N)C(=O)NCC(=O)N[C@@H](C)C(=O)N[C@H](C(=O)N[C@@H](Cc1cnc[nH]1)C(=O)N[C@H](C(=O)NCC(=O)N[C@@H](CCCCN)C(=O)N[C@H](C(=O)N[C@H](C(=O)N[C@@H](Cc1cnc[nH]1)C(=O)N[C@@H](CCCN=C(N)N)C(=O)N[C@@H](CC(C)C)C(=O)N[C@H](C(=O)N[C@H](C(=O)NCC(N)=O)[C@@H](C)O)C(C)C)[C@@H](C)CC)[C@@H](C)O)C(C)C)C(C)C` [FFHHIFRGAVHVGKTIHRLVTG], the minimum inhibitory concentration (MIC) in experiment [5] amounted to 6 µM (≈ 15.2 µg/mL); in [6], 9.88 µM (≈ 25 µg/mL); in [7], 1.23 µM (≈ 3.1 µg/mL); in [8], 1.23 µM (≈ 3.1 µg/mL); in experiment [9], 8 µM (≈ 20.2 µg/mL); in [10] it was 0.593 µM (≈ 1.5 µg/mL). In addition, the minimal inhibitory concentration (MIC) in [11] was determined as 10 µM (≈ 25.3 µg/mL).

On to `CC(C)C[C@H](NC(=O)[C@H](CC(N)=O)NC(=O)[C@H](CCCN=C(N)N)NC(=O)[C@H](Cc1ccccc1)NC(=O)[C@@H](N)Cc1ccccc1)C(=O)N[C@@H](Cc1c[nH]c2ccccc12)C(=O)N[C@@H](CCCCN)C(=O)NCC(=O)N[C@@H](C)C(=O)N[C@@H](CCCCN)C(=O)N[C@@H](C)C(=O)N[C@@H](C)C(=O)N[C@@H](Cc1ccccc1)C(=O)N[C@@H](CCCN=C(N)N)C(=O)N[C@@H](C)C(=O)NCC(=O)N[C@@H](Cc1cnc[nH]1)C(=O)N[C@@H](C)C(=O)N[C@@H](C)C(=O)N[C@@H](Cc1c[nH]c2ccccc12)C(=O)N[C@@H](CCCN=C(N)N)C(=O)N[C@@H](C)C(=O)O` [FFRNLWKGAKAAFRAGHAAWRA], for which the MIC in experiment [6] was 19.7 µM (≈ 50 µg/mL); in [12], 2.47 µM (≈ 6.25 µg/mL); in experiment [7] it was 1.23 µM (≈ 3.12 µg/mL); in experiment [8], 2.47 µM (≈ 6.25 µg/mL); in experiment [13], at least 39.5 µM; in [14] it was 2.47 µM (≈ 6.25 µg/mL). In addition, the MIC was 1.23 µM (≈ 3.12 µg/mL) in experiment [15] and 0.616 µM (≈ 1.56 µg/mL) in experiment [10].

`CC(C)C[C@H](NC(=O)[C@H](CC(C)C)NC(=O)[C@H](CCCCN)NC(=O)[C@@H]1CCCN1C(=O)[C@H](CC(C)C)NC(=O)[C@@H](N)Cc1ccccc1)C(=O)N[C@@H](C)C(=O)NCC(=O)N[C@@H](CC(C)C)C(=O)N1CCC[C@H]1C(=O)N[C@@H](CO)C(=O)N[C@@H](Cc1ccccc1)C(=O)N[C@@H](CC(C)C)C(=O)N[C@H]1CSSC[C@@H](C(=O)O)NC(=O)[C@H](CCCCN)NC(=O)[C@H](CCCCN)NC(=O)[C@H](Cc2ccccc2)NC(=O)[C@H](C(C)C)NC(=O)[C@H](CC(C)C)NC1=O` [FLPKLLAGLPSFLCLVFKKC]: the MIC in [16] worked out at 8 µM (≈ 17.9 µg/mL); in experiment [17], 16 µM (≈ 35.8 µg/mL); in [18], 8 µM (≈ 17.9 µg/mL); in [19], 16 µM (≈ 35.8 µg/mL).

Take `CC[C@H](C)[C@H](NC(=O)CN)C(=O)N[C@@H](CCSC)C(=O)N[C@@H](CO)C(=O)N[C@@H](CO)C(=O)N[C@@H](CC(C)C)C(=O)N[C@@H](CCSC)C(=O)N[C@@H](CCCCN)C(=O)N[C@@H](CCCCN)C(=O)N[C@@H](CC(C)C)C(=O)N[C@@H](C)C(=O)N[C@@H](CCCCN)C(=O)N[C@H](C(=O)N[C@H](C(=O)N[C@@H](C)C(=O)N[C@@H](CCCCN)C(N)=O)[C@@H](C)CC)[C@@H](C)CC` [GIMSSLMKKLAKIIAK]: the minimum inhibitory concentration (MIC) in experiment [20] turned out to be 11 µM (≈ 19 µg/mL); in [21], 5.2 µM (≈ 9 µg/mL); in experiment [7], 10 µM (≈ 17.3 µg/mL); in experiment [22], 3 µM (≈ 5.19 µg/mL); in [23], 9 µM (≈ 15.6 µg/mL); in experiment [24], 9.3 µM (≈ 16.1 µg/mL). The MIC was found to be 5 µM (≈ 8.66 µg/mL) in [25], 4.5 µM (≈ 7.79 µg/mL) in experiment [26], 3.7 µM (≈ 6.41 µg/mL) in experiment [27] and 7 µM (≈ 12.1 µg/mL) in experiment [28].

For the compound `CC(C)[C@H](NC(=O)[C@H](CCCCN)NC(=O)[C@H](C)NC(=O)[C@H](C)NC(=O)[C@H](CCCCN)NC(=O)[C@H](CCCCN)NC(=O)[C@H](Cc1ccccc1)NC(=O)[C@H](Cc1ccccc1)NC(=O)[C@H](CCCCN)NC(=O)[C@H](CCCCN)NC(=O)[C@H](Cc1c[nH]c2ccccc12)NC(=O)CN)C(=O)NCC(=O)N[C@@H](CCCCN)C(=O)O` [GWKKFFKKAAKVGK], the MIC in [29], in [30] and in experiment [31] was at least 315 µM each time.

On to `NCCCC[C@H](NC(=O)CNC(=O)[C@H](Cc1ccccc1)NC(=O)[C@H](CCCCN)NC(=O)[C@H](Cc1ccccc1)NC(=O)[C@H](Cc1ccccc1)NC(=O)[C@H](CCCCN)NC(=O)[C@H](CCCCN)NC(=O)[C@H](Cc1ccccc1)NC(=O)[C@H](Cc1ccccc1)NC(=O)[C@H](CCCCN)NC(=O)CNC(=O)[C@@H](N)Cc1c[nH]c2ccccc12)C(=O)O` [WGKFFKKFFKFGK], for which the minimum inhibitory concentration (MIC) in experiment [29], in experiment [30] and in experiment [31] was 18.9 µM (≈ 32 µg/mL) throughout.

Take `NCCCC[C@H](NC(=O)[C@H](CCCCN)NC(=O)[C@H](Cc1c[nH]c2ccccc12)NC(=O)[C@H](Cc1c[nH]c2ccccc12)NC(=O)[C@H](CCCCN)NC(=O)[C@H](CCCCN)NC(=O)[C@@H](N)Cc1c[nH]c2ccccc12)C(=O)N[C@@H](Cc1c[nH]c2ccccc12)C(N)=O` [WKKWWKKW]: the MIC in experiment [32] is 250 µM (≈ 319 µg/mL); in experiment [33] it was 31.3 µM (≈ 39.9 µg/mL); in experiment [34] it was at least 62.5 µM; in experiment [35], above 250 µM.
